Holding throughout (type): cell-based
For one test, the system named is ARv7. Description: ARv7 protein degradation in 22Rv1 prostate cancer cells (Western blot). As to the method: Protein Expression via Western Blot. 22Rv1 cells were seeded in a 6-well plate and incubated overnight. Next day, the cells were treated with varying concentrations of 6 (1 and 10 μM) and 5 (0.5, 1, 10, 50, 100, 250, and 500 nM; 1, 10, and 50 μM) for 24 hours and 5 (1 and 10 nM) at different time points (0, 2, 4, 6, 12, 16, 24, 48, and 72 h). Whole cell lysates were extracted in RIPA lysis buffer containing protease inhibitor and EDTA (Fisher Scientific, PI78440). Protein concentrations in each sample was estimated following BCA assay (Pierce™ BCA protein assay kit, Fisher Scientific, PI23227) as per the manufacturer's protocol. Proteins were standardized using RIPA lysis buffer with Laemelli SDS sample buffer (Thermo Scientific, AAJ61337AC) and heated at 1000C for 15 minutes. The proteins were resolved on a 4-12% premade gel (Invitrogen, NW04120BOX) at 60-90 V in 20× Bolt™ MES SDS running buffer (Fisher Scientific, B000202) and transferred onto a nitrocellulose membrane (Invitrogen, IB23001) using iBlot 2. The membranes were blocked with 2.5% non-fat dry milk (Bio-Rad, 1706404) for 1 h, and the membrane was incubated overnight on a rocking platform at 4 °C with the desired primary antibodies against AKR1C3 (mouse mAb, 1:200, Sigma, A6229), AKR1C1/C2 (rabbit mAb, 1:500, Abcam, ab179448), ARv7 (rabbit mAb, 1:500, Abcam, ab198394) and actin (mouse mAb, 1:1,000, ThermoFisher, MA5-11869). The membranes were washed three times, 10 minutes each, with 1×Tris-buffered saline (TBST, Bio-Rad, 1706435) in 0.1% Tween 20, on a rocking platform wherein they were incubated with rabbit anti-mouse IgG (ThermoFisher, 31450) or goat anti-rabbit IgG (Jackson ImmunoResearch, 111-035-003) secondary antibody (1:1,000) horseradish peroxidase conjugate for 1 hour. […] Bands were quantified by densitometry using ImageJ software and fold change in AKR1C3, AKR1C1/C2, and ARv7 protein expression was determined based on actin controls. […]

For test [1], the system named is 22Rv1 prostate cancer cells. Description: 22Rv1 cell viability (MTS assay). To be noted: 72 h. As to the method:
Cell culture and reagents. 22Rv1 cells were purchased from the American Type Culture Collection (ATCC in 2016) and cultured in RPMI 1640 supplemented with 10% Fetal Bovine Serum (FBS, Fisher Scientific, MT35011CV) and Penicillin-Streptomycin Solution (1%, Fisher Scientific, MT30001Cl) at 37 °C in a humidified incubator with 5% carbon dioxide atmosphere. Stock solutions of E3 ligase ligand, lenalidomide 6 (10 mM), PROTAC 5 (25 mM), and AKR1C3 inhibitor 3 (100 mM) were prepared in DMSO.
Cell viability assay. Cells were seeded at a density of 10,000 cells/well in a 96-well plate containing 100 μL growth media per well and were incubated at 37 °C in a humidified incubator with 5% carbon dioxide over ~18-24 hours. Cells were treated with 6, 5, and 3 serially diluted at the indicated concentrations limiting the final DMSO concentration to less than 0.1% and incubated at 37 °C for 72 hours. 10 μL of MTS reagent (CellTiter96®Aqueous One Solution Reagent, Promega, G3580) was added to each well and incubated at the above-mentioned conditions for 4 hours. Absorbance was recorded at OD 490 nm on a Synergy LX multi-mode reader and the viability of cells were plotted as percentage of DMSO control.

In a further test the target is T1, AKR1C3 (Homo sapiens, UniProt P42330).
T1 sequence (P42330 1-323): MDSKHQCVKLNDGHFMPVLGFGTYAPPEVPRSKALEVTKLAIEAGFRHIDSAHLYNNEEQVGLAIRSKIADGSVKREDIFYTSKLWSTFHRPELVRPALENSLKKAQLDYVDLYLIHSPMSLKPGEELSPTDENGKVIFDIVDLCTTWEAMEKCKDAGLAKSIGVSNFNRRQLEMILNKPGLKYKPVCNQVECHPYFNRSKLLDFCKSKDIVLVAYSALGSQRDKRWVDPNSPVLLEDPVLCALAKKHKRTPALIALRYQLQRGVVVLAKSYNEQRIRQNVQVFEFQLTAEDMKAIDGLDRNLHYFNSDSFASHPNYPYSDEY
In words: AKR1C3 protein degradation in 22Rv1 prostate cancer cells (Western blot). Also on record: 22Rv1 prostate cancer cells that express high levels of AKR1C3; host or cells: 22Rv1. The note with it: read-out: AKR1C3 DC50 (half-maximal degradation concentration); 72 hours.

`O=C(O)/C=C/c1cc(C(=O)NCc2ccc(OCc3cn(CCOCCOCC(=O)Nc4cccc5c4CN(C4CCC(=O)NC4=O)C5=O)nn3)cc2)cc(-c2ccccc2)c1` (stereo not drawn) [Compound IA, (E)-3-(5-((4-((1-(2-(2-(2-((2-(2,6-dioxopiperidin-3-yl)-1-oxoisoindolin-4-yl)amino)-2-oxoethoxy)ethoxy)ethyl)-1H-1,2,3-triazol-4-yl)methoxy)benzyl)carbamoyl)-[1,1 ? biphenyl]-3-yl)acrylic acid]: in the test on ARv7 (10 nM, 2 hour pretreatment with MG132 (3 μM), in words), the “ARv7 expression after proteasome inhibitor pretreatment” value is reported as “not affected”. For the same compound, the ARv7 expression result with ARv7 (10 nM, 72 hours, in words) was “almost complete amelioration of ARv7 expression”. Further, the DC50 was 70 nM in the test with ARv7 (72 hours, read-out: ARv7 DC50 (half-maximal degradation concentration)) and 52 nM on AKR1C3. Also, the “22Rv1 cell viability activity in words” value in test [1] is “equipotent”. Further, the IC50 in test [1] (Homo sapiens, 22Rv1, MTS, mean±standard deviation of two independent experiments) turned out to be 49300 ± 1400 nM.

The values are drawn from US20260364181A1, “AKR1C3 Targeted Heterobifunctional Small Molecule Proteolysis Targeting Chimeras” (BOARD OF REGENTS OF THE UNIVERSITY OF NEBRASKA, priority 2022, published 2026).
